Results: US20240325760A1, “METHODS FOR DETECTING AND PREVENTING ALZHEIMER'S DISEASE AND MILD COGNITIVE IMPAIRMENT” (RAMOT AT TEL-AVIV UNIVERSITY LTD., priority 2021, published 2024)
Several values for one entry are separate records, joined by “and”; a condition that tells them apart may be missing. Identical values can stand only once. Entries after “also recorded” stand apart in the source; their conditions may differ.

Columns and labels:
[1] = system: anesthetized APP/PS1 mice; assay: LFP recording of epileptiform high-voltage CA1 spikes under anesthesia; format: in vivo
Description: For intracerebroventricular (ICV) ainjections, a small hole was drilled in the skull above the left lateral ventricle (0.7 mm posterior, 1.2 mm lateral to bregma), and a 5 mm guide cannula was slowly inserted into the ventricle and fixed to the skull by dental cement (C&B Metabond, Parkell). The guide cannula was sealed with a 5 mm sterile metal bar to prevent CSF leakage and possible infections. 1-2 weeks after the surgery, the mice received ICV injections using a 10 μl syringe (Hamilton). The mice were injected with 1 μl containing 27 μg of teriflunomide (TERI), dissolved in DMSO or vehicle (1 μl of DMSO) with speed of 0.15 μl/min (Nano Jet stereotaxic syringe pump).
LFP/fEPSP recordings. Small diameter holes were drilled in the skull at the position of the recording and stimulating electrodes. […] Ground electrode was screwed to the skull above the cerebellum. Test stimuli of 50-100 μA were delivered to the SC at 0.06 Hz to verify the proper location of the electrodes and to estimate the stability of the signal. The electrodes were firmly fixed to the skull by dental cement (C&B Metabond, Parkell) and dental acrylic. Operated mice recovered in their home cage for at least a week following electrodes implantation. For evoked field excitatory postsynaptic potential (fEPSP) recordings in CA3-CA1 synapses in awake mice (FIGS. 1F-1G), mice were habituated for a few days to the experimental device that was composed from a running wheel and metal bar in which the mice were head fixed into throughout the experiment with a screw. Following habituation, the mice were head fixed to the experimental device, and CA3-CA1 fEPSP measurements were taken 30 minutes after.
Ca^2+ imaging and LFP recording in anesthetized mice. For Ca^2+ imaging and LFP recording sessions during anesthesia, mice were placed in an induction chamber connected to isoflurane vaporizer (Isotec 5), gas flow rate was turned on to 0.8 LPM (litre per minute) and the vaporizer was set at 5% isoflurane. […] Respiration and heart rate were monitored and analyzed by the physiological monitoring system. […] Temperature was also maintained by the device at 37° C. throughout the procedure.
Detection of pathological spikes in fAD models. High-voltage pathological spikes were detected by setting a threshold of 10 z-scores above and below the mean voltage during the suppression epochs of the recording and accepted only if their peak-to-peak value within 30 ms was greater than 10 z-scores. A dead-time of 50 ms was set to assure the same spike was not counted twice. Subsequently, all spikes were manually inspected and approved.

[2] = system: nRE-CA1 synapses; assay: nRE-CA1 synaptic transmission in APP/PS1 mice expressing hM4D(Gi)-mCherry; format: in vivo, mouse; details: data not shown
[3] = system: CA3-CA1 synaptic connections in hippocampal slices; assay: Dose-response of TERI on fEPSP amplitude in acute hippocampal slices; format: cell-based, mouse
Description: Electrophysiology in slices. Acute hippocampal slices (coronal, 400 μm) were prepared from WT and APP/PS1 mice. Slices were transferred to a submerged recovery chamber at 32° C. containing oxygenated (95% O2 and 5% CO2) artificial cerebrospinal fluid (ACSF) for 1 h before the experiment. The ACSF contained, in mM: NaCl, 125; KCl, 2.5; CaCl2, 1.2; MgCl2, 1.2; NaHCO3, 25; NaH2PO4, 1.25; glucose, 25. fEPSPs were recorded in acute hippocampal slices with a glass pipette containing Tyrode solution (1-2 MΩ) from synapses in the CA1 using a MultiClamp700B amplifier (Molecular Devices). Stimulation of the Shaffer Collateral (SC) pathway was delivered through a glass suction electrode (10-20 μm tip) filled with Tyrode. Data were analyzed using pClamp10 (Molecular Devices).

[4] = system: cultured hippocampal neurons (hippocampal networks ex vivo); assay: Mean firing rate (MFR) of hippocampal cultures on multi-electrode arrays; format: cell-based, mouse; details: for network MFR after isoflurane application: isoflurane 1%, 24 hour
Description: Multi-electrode array (MEA). Postnatal hippocampal cultures were plated on MEA plates containing 120 titanium nitride (TiN) electrodes, in addition to 4 internal reference and 4 ground electrodes (Styr et al., 2019). Each electrode has a diameter of 30 μm and electrodes are arranged in a 12×12 grid (sparing 6 electrodes in each corner), spaced 100-200 μm apart on average (Multi Channel Systems, 120MEA200/30iR-Ti). Data acquisition was done in 3-weeks-old cultures using a standard MEA2100-Systems with a hardware filter cut-off of 3.3 kHz and sampling rate of 10 kHz per electrode. Recordings were carried out under constant 37° C. and 5% CO2 levels.
Data analysis: Raw data was filtered, offline, at 200 Hz using a Butterworth high-pass filter. Spikes were then detected, offline, using MC_Rack software (Multi Channel Systems) based on a fixed threshold set to between 5-6 standard deviations from mean. Twenty minutes of each hour (that were previously shown to reliably represent the MFR of the entire hour, were used for analysis to reduce processing time and analyzed using custom-written scripts in MATLAB (Mathworks) as previously described (Slomowitz et al., 2015). Channels with unstable (>30% change of MFR) baseline recordings during 3-4 hours prior to a perturbation were excluded from the analysis.

[5] = system: CA1 neuronal populations of WT and APP/PS1 mice; assay: Ca2+ imaging of CA1 population activity under anesthesia; format: in vivo, mouse
[6] = system: APP/PS1 mice; assay: Spatial working memory, delta-maze alternation test after general anesthesia; format: in vivo, mouse; details: 4-5-month-old APP/PS1 mice; isoflurane inhalation 1.5%, 3 hour; 10, 20 and 60 sec delays

SMILES: C[N+]1([O-])CCN(C2=Nc3cc(Cl)ccc3Nc3ccccc32)CC1 [CNO]
- decrease in the rate of epileptiform CA1 spikes vs vehicle ([1]; i.p. 5 mg/kg, anesthetized APP/PS1 mice expressing hM4D(Gi)-mCherry in nRE-CA1 synapses): ~53%
- nRE-CA1 synaptic transmission [2]: suppressed

SMILES: C/C(O)=C(\C#N)C(=O)Nc1ccc(C(F)(F)F)cc1 [TERI, (2Z)-2-cyano-3-hydroxy-N-[4-(trifluoromethyl)phenyl]but-2-enamide]
- IC50 ([3]; Mus musculus, hippocampal slices of APP/PS1 mice): 19.1 µM
- IC50 ([3]; Mus musculus, hippocampal slices of WT mice): 17.6 µM
- IC50 ([3]; hippocampal slices of APP/PS1 mice): 19.2 ± 1 µM
- reduction in the frequency of high-voltage CA1 spikes vs baseline ([1]; ICV 27 μg in 1 μl, anesthetized APP/PS1 mice): ~50% and 50.7±7.2%
- frequency of high-voltage spikes after TERI ICV injection ([1]; ICV 27 μg in 1 μl, baseline 7.6±1.4 per min, n=9 anesthetized APP/PS1 mice): 3.8±0.95 per min
- negative regulation of MFR set points by TERI ([4]; APP/PS1 networks ex vivo, data not shown): preserved

SMILES: NC1=N[C@H](O)[C@H]2[C@H]3O[C@]4(O)O[C@@H]([C@@H](O)[C@@]2(N1)[C@@H]4O)[C@]3(O)CO [TTX, tetrodotoxin]
- rate of epileptiform CA1 spikes vs baseline ([1]; mouse, in vivo): profound decrease; also recorded: reduction

SMILES: NCC(CC(=O)O)c1ccc(Cl)cc1 (stereo not shown) [baclofen]
- MFR homeostatic response to chronic inactivity ([4]; baclofen 10 μM, WT and APP/PS1 networks, first day of perturbation): homeostatically compensated

SMILES: COc1ccc(-c2ccc(=N)n(CCCC(=O)O)n2)cc1 [gabazine]
- MFR renormalization following 2 days of gabazine application ([4]; 30 μM, APP/PS1 neurons): disrupted
- population firing rate on gabazine application (acute) ([4]; 30 μM, WT networks): fast and pronounced increase
- MFR following 2 days of gabazine application ([4]; 30 μM, WT neurons): renormalized to the baseline level

SMILES: FC(F)OC(Cl)C(F)(F)F (stereo not shown) [isoflurane]
- epileptiform high-voltage spikes in CA1 ([1]; 4-5 months old APP/PS1 mice under general anesthesia (1.5% isoflurane)): 3.22±0.51 per min
- network MFR after isoflurane application ([4]; APP/PS1 cultures): 112.5±8.7 % of baseline
- network MFR after isoflurane application ([4]; WT cultures): 42.0±0.9 % of baseline
- CA1 activity under anesthesia ([5]; APP/PS1 mice): maintained constant
- suppression of total CA1 activity ([5]; WT mice, deep anesthesia (1.5% isoflurane)): ~87%
- suppression of total CA1 activity ([5]; WT mice, moderate anesthesia (1% isoflurane)): ~57%
- choice accuracy in delta maze following anesthesia [6]: decrease in choice accuracy

SMILES: Cc1cccc(C(C)c2cnc[nH]2)c1C (stereo not shown) [medetomidine]
- CA1 activity under anesthesia ([5]; APP/PS1 mice): much lower level of suppression
- CA1 activity under anesthesia ([5]; WT mice, data not shown): pronounced inhibition of CA1 activity
